Laboratory results from PubChem BioAssay AID330 (DTP/NCI, 2004).
Several values for one entry are separate records, joined by “and”; a condition that tells them apart may be missing. Identical values can stand only once. Inconclusive results and toxic doses are left out.

Test system: P388 leukemia ip, CD2F1 mice, survival T/C
Test: NCI In Vivo Anticancer Drug Screen. Data for tumor model P388 Leukemia (intraperitoneal) in CD2F1 (CDF1) mice
Conditions: endpoint: median survival time, higher = longer survival
Outline: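 Mice carrying the transplanted tumor received test compound or vehicle. Survival was recorded in each group, and the value is the treated-group measurement divided by that of the vehicle-treated control group.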

[1] = dose: 12.5 mg/kg/injection, schedule: Q01DX009 (ip), vehicle: saline
[2] = dose: 50.0 mg/kg/injection, schedule: Q01DX009 (ip), vehicle: saline
[3] = dose: 100.0 mg/kg/injection, schedule: Q01DX009 (ip), vehicle: saline
[4] = dose: 25.0 mg/kg/injection, schedule: Q01DX009 (ip), vehicle: saline with Tween-80
[5] = dose: 50.0 mg/kg/injection, schedule: Q01DX009 (ip), vehicle: saline with Tween-80
[6] = dose: 50.0 mg/kg/injection, schedule: Q01DX005 (ip), vehicle: saline with Tween-80
[7] = dose: 100.0 mg/kg/injection, schedule: Q01DX005 (ip), vehicle: saline with Tween-80
[8] = dose: 200.0 mg/kg/injection, schedule: Q01DX009 (ip), vehicle: saline
[9] = dose: 6.25 mg/kg/injection, schedule: Q01DX009 (ip), vehicle: saline with Tween-80
[10] = dose: 6.25 mg/kg/injection, schedule: Q01DX009 (ip), vehicle: saline

CCC(=O)Cc1nc2n(c1O)C(=N)N=N2
T/C (dose: 60.0 mg/kg/injection, schedule: Q01DX005 (ip), vehicle: saline): 98 % of control
T/C (dose: 120.0 mg/kg/injection, schedule: Q01DX005 (ip), vehicle: saline): 98 % of control
T/C (dose: 240.0 mg/kg/injection, schedule: Q01DX005 (ip), vehicle: saline): 98 % of control

CCCCC[CH2][GeH]([CH2]CCCCC)[O][GeH]([CH2]CCCCC)[CH2]CCCCC
T/C [1]: 100 % of control and 97 % of control
T/C (dose: 25.0 mg/kg/injection, schedule: Q01DX009 (ip), vehicle: saline): 104 % of control and 90 % of control
T/C [2]: 100 % of control and 101 % of control and 106 % of control
T/C [3]: 120 % of control and 97 % of control

CN(C)CCCNc1nc(-c2cccc(C(Cl)(Cl)Cl)c2)nc(C(Cl)(Cl)Cl)n1
T/C [4]: 109 % of control
T/C [5]: 111 % of control

Cc1ccc(SSCCN)cc1
T/C (dose: 12.5 mg/kg/injection, schedule: Q01DX005 (ip), vehicle: saline): 104 % of control
T/C (dose: 25.0 mg/kg/injection, schedule: Q01DX005 (ip), vehicle: saline): 104 % of control
T/C (dose: 50.0 mg/kg/injection, schedule: Q01DX005 (ip), vehicle: saline): 108 % of control and 110 % of control

O=C(NC(=O)C(F)(F)F)Nc1cc(F)ccc1F
T/C [5]: 99 % of control
T/C (dose: 100.0 mg/kg/injection, schedule: Q01DX009 (ip), vehicle: saline with Tween-80): 105 % of control
T/C (dose: 200.0 mg/kg/injection, schedule: Q01DX009 (ip), vehicle: saline with Tween-80): 107 % of control

C=CC1=C(C)C2=NC1=CC1=NC(=CC3=C(C)C4=C(O)C(C(=O)OC)C(=C5NC(=C2)C(C)C5CCC(=O)OC/C=C(\C)CCCC(C)CCCC(C)CCCC(C)C)C4=N3)C(CC)=C1C (stereo not given)
T/C [6]: 90 % of control
T/C [7]: 92 % of control
T/C (dose: 200.0 mg/kg/injection, schedule: Q01DX005 (ip), vehicle: saline with Tween-80): 92 % of control

CCSSC12CCCN1C(=O)C(C)N(C)C2=O (stereo not given)
T/C [2]: 105 % of control
T/C [3]: 104 % of control
T/C [8]: 111 % of control

Clc1cc(CBr)c(CBr)cc1Cl
T/C (dose: 3.13 mg/kg/injection, schedule: Q01DX009 (ip), vehicle: saline with Tween-80): 95 % of control
T/C [9]: 100 % of control
T/C (dose: 12.5 mg/kg/injection, schedule: Q04DX003 (ip), vehicle: saline with Tween-80): 113 % of control
T/C (dose: 25.0 mg/kg/injection, schedule: Q04DX003 (ip), vehicle: saline with Tween-80): 109 % of control

Cc1cccc(C(=O)CC[N+](C)(C)C)c1
T/C (dose: 3.13 mg/kg/injection, schedule: Q01DX009 (ip), vehicle: saline): 111 % of control
T/C [10]: 109 % of control
T/C [1]: 94 % of control

Cc1c(-c2ccccc2)ccnc1/C=N/NC(=S)Nc1ccc(N(C)C)cc1
T/C (dose: 3.12 mg/kg/injection, schedule: Q01DX009 (ip), vehicle: saline with Tween-80): 119 % of control
T/C [9]: 153 % of control

O=C1CCC2CN3CCc4c([nH]c5ccccc45)C3CC2C1 (stereo not given)
T/C (dose: 60.0 mg/kg/injection, schedule: Q01DX005 (ip), vehicle: saline with Tween-80): 100 % of control
T/C (dose: 120.0 mg/kg/injection, schedule: Q01DX005 (ip), vehicle: saline with Tween-80): 106 % of control

CC(=O)c1ccc2c(=O)c(C(=O)O)c[nH]c2c1
T/C (dose: 12.5 mg/kg/injection, schedule: Q01DX009 (ip), vehicle: saline with Tween-80): 87 % of control
T/C [4]: 91 % of control
T/C [2]: 108 % of control
T/C [3]: 98 % of control
T/C [8]: 104 % of control

S=c1nc[nH]c2c1ncn2C1C=CC=CC=C1
T/C [6]: 110 % of control
T/C [7]: 106 % of control

CCCCCCCCCCCCCCCC[N+](C)(C)C(C)c1ccccc1 (stereo not given)
T/C (dose: 0.78 mg/kg/injection, schedule: Q04DX003 (ip), vehicle: saline with Tween-80): 104 % of control and 106 % of control
T/C (dose: 1.56 mg/kg/injection, schedule: Q04DX003 (ip), vehicle: saline with Tween-80): 116 % of control and 118 % of control
T/C (dose: 6.25 mg/kg/injection, schedule: Q04DX003 (ip), vehicle: saline with Tween-80): 117 % of control

C=C1C(O)C2(O)OCC34C(CC5C(C)=CC(=O)C(O)C5(C)C23)OC(=O)C(O)C14O (stereo not given)
T/C [10]: 93 % of control

Nc1cc(S(=O)(=O)F)ccc1Cl
T/C (dose: 100.0 mg/kg/injection, schedule: Q04DX003 (ip), vehicle: saline with Tween-80): 100 % of control
T/C (dose: 200.0 mg/kg/injection, schedule: Q04DX003 (ip), vehicle: saline with Tween-80): 106 % of control
